Laboratory results published in the supplement of paper PMC10307832.

How the values were obtained:
Test in all cases: relative viability (nuclei count vs DMSO), 5 days (fraction); higher = more cells survive
Bosutinib + Lapatinib = compound: COc1cc(Nc2c(C#N)cnc3cc(OCCCN4CCN(C)CC4)c(OC)cc23)c(Cl)cc1Cl [Bosutinib] + CS(=O)(=O)CCNCc1ccc(-c2ccc3ncnc(Nc4ccc(OCc5cccc(F)c5)c(Cl)c4)c3c2)o1 [Lapatinib] (partner 2 µM)
Method in brief: (§1)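 For relative viability, nuclei counts in treated wells were divided by those in vehicle wells. Lung cancer cell lines had been pin-tool dosed in 1536-well plates the day after seeding and cultured for 5 days, then fixed and stained in one step (final 0.05% Triton X-100, 1% formaldehyde, 1 ug/ml Hoechst) and imaged at 4×. Doses were one drug alone or a fixed anchor-drug dose plus five library-drug doses (not always all listed) in √10 steps, and values are duplicate-plate medians.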

Bosutinib + Pictilisib = compound: COc1cc(Nc2c(C#N)cnc3cc(OCCCN4CCN(C)CC4)c(OC)cc23)c(Cl)cc1Cl [Bosutinib] + CS(=O)(=O)N1CCN(Cc2cc3nc(-c4cccc5[nH]ncc45)nc(N4CCOCC4)c3s2)CC1 [Pictilisib] (partner 1 µM)
Method in brief: as §1

Bosutinib + Alpelisib = compound: COc1cc(Nc2c(C#N)cnc3cc(OCCCN4CCN(C)CC4)c(OC)cc23)c(Cl)cc1Cl [Bosutinib] + Cc1nc(NC(=O)N2CCC[C@H]2C(N)=O)sc1-c1ccnc(C(C)(C)C(F)(F)F)c1 [Alpelisib] (partner 2 µM)
Method in brief: as §1

Bosutinib + Dasatinib = compound: COc1cc(Nc2c(C#N)cnc3cc(OCCCN4CCN(C)CC4)c(OC)cc23)c(Cl)cc1Cl [Bosutinib] + Cc1nc(Nc2ncc(C(=O)Nc3c(C)cccc3Cl)s2)cc(N2CCN(CCO)CC2)n1 [Dasatinib] (partner 0.075 µM)
Method in brief: as §1

Bosutinib + Phenformin = compound: COc1cc(Nc2c(C#N)cnc3cc(OCCCN4CCN(C)CC4)c(OC)cc23)c(Cl)cc1Cl [Bosutinib] + N=C(N)NC(=N)NCCc1ccccc1 [Phenformin] (partner 250 µM)
Method in brief: as §1

Row | Cell Line | relative viability (Bosutinib + Lapatinib; first compound 0.01 µM) | relative viability (Bosutinib + Lapatinib; first compound 0.03162 µM) | relative viability (Bosutinib + Lapatinib; first compound 0.1 µM) | relative viability (Bosutinib + Lapatinib; first compound 1 µM) | relative viability (Bosutinib + Pictilisib; first compound 0.01 µM) | relative viability (Bosutinib + Pictilisib; first compound 0.03162 µM) | relative viability (Bosutinib + Pictilisib; first compound 0.1 µM) | relative viability (Bosutinib + Pictilisib; first compound 1 µM) | relative viability (Bosutinib + Alpelisib; first compound 0.01 µM) | relative viability (Bosutinib + Alpelisib; first compound 0.03162 µM) | relative viability (Bosutinib + Alpelisib; first compound 0.1 µM) | relative viability (Bosutinib + Alpelisib; first compound 1 µM) | relative viability (Bosutinib + Dasatinib; first compound 0.01 µM) | relative viability (Bosutinib + Dasatinib; first compound 0.03162 µM) | relative viability (Bosutinib + Dasatinib; first compound 0.1 µM) | relative viability (Bosutinib + Dasatinib; first compound 1 µM) | relative viability (Bosutinib + Phenformin; first compound 0.01 µM) | relative viability (Bosutinib + Phenformin; first compound 0.03162 µM) | relative viability (Bosutinib + Phenformin; first compound 0.1 µM) | relative viability (Bosutinib + Phenformin; first compound 1 µM)
1 | NCI-H358 | 0.558 | 0.476 | 0.41 | 0.543 | 0.407 | 0.368 | 0.363 | 0.379 | 0.862 | 0.817 | 0.771 | 0.585 | 0.2 | 0.201 | 0.206 | 0.366 | 0.387 | 0.309 | 0.32 | 0.357
2 | NCI-H460 | 1.03 | 0.875 | 0.874 | 0.833 | 0.38 | 0.353 | 0.321 | 0.299 | 0.5 | 0.533 | 0.428 | 0.201 | 0.548 | 0.491 | 0.51 | 0.537 | 0.557 | 0.492 | 0.491 | 0.356
3 | NCI-H520 | 1.01 | 0.86 | 0.855 | 0.639 | 0.309 | 0.279 | 0.288 | 0.281 | 0.96 | 0.786 | 0.968 | 0.66 | 0.226 | 0.232 | 0.199 | 0.22 | 0.677 | 0.64 | 0.507 | 0.393
4 | NCI-H596 | 1.07 | 0.991 | 1.07 | 1.1 | 0.398 | 0.369 | 0.405 | 0.392 | 0.505 | 0.992 | 0.945 | 0.348 | 0.595 | 0.721 | 0.704 | 0.637 | 0.883 | 0.668 | 0.721 | 0.646
5 | NCI-H647 | 1.06 | 1.16 | 1.09 | 0.53 | 0.508 | 0.436 | 0.432 | 0.372 | 1.34 | 1.33 | 1.03 | 0.543 | 0.22 | 0.219 | 0.222 | 0.174 | 0.606 | 0.494 | 0.436 | 0.348
6 | NCI-H650 | 0.889 | 1.07 | 0.948 | 1.15 | 0.913 | 0.878 | 0.914 | 0.997 | 1.15 | 1.12 | 1.21 | 1.18 | 0.47 | 0.502 | 0.488 | 0.552 | 0.447 | 0.45 | 0.472 | 0.482
7 | NCI-H661 | 0.489 | 0.511 | 0.468 | 0.354 | 0.351 | 0.53 | 0.386 | 0.327 | 0.407 | 0.881 | 0.88 | 0.477 | 0.947 | 0.883 | 0.884 | 0.814 | 0.281 | 0.3 | 0.287 | 0.269
8 | NCI-H727 | 0.781 | 0.767 | 0.781 | 0.384 | 0.447 | 0.435 | 0.297 | 0.282 | 0.59 | 0.549 | 0.537 | 0.449 | 0.374 | 0.321 | 0.32 | 0.31 | 0.695 | 0.371 | 0.42 | 0.407
9 | NCI-H838 | 1.18 | 0.94 | 0.922 | 0.604 | 0.468 | 0.429 | 0.414 | 0.319 | 0.961 | 0.879 | 0.864 | 0.432 | 0.325 | 0.302 | 0.334 | 0.332 | 0.658 | 0.56 | 0.53 | 0.375
10 | NCI-H1355 | 1.01 | 1.04 | 1.09 | 0.957 | 0.465 | 0.545 | 0.572 | 0.412 | 0.871 | 0.816 | 0.893 | 0.72 | 0.746 | 0.673 | 0.731 | 0.709 | 0.517 | 0.474 | 0.448 | 0.362
11 | NCI-H1395 | 1.26 | 1.06 | 0.914 | 1.08 | 0.597 | 0.758 | 0.818 | 0.719 | 1.23 | 1.09 | 1.18 | 0.913 | 0.414 | 0.429 | 0.405 | 0.436 | 0.38 | 0.44 | 0.461 | 0.451
12 | NCI-H1437 | 0.89 | 0.798 | 0.784 | 0.702 | 0.465 | 0.395 | 0.54 | 0.483 | 0.939 | 0.954 | 1.04 | 0.862 | 0.392 | 0.384 | 0.4 | 0.338 | 0.341 | 0.305 | 0.335 | 0.287
13 | NCI-H1563 | 0.869 | 0.931 | 0.84 | 0.758 | 0.611 | 0.607 | 0.613 | 0.526 | 0.905 | 0.904 | 0.859 | 0.63 | 0.444 | 0.47 | 0.446 | 0.472 | 0.65 | 0.635 | 0.617 | 0.573
